One assay concerns HCT116 MTAP−/−. The assay can be described thus: Inhibition of cellular proliferation (Cell Titer Glo), HCT116 MTAP−/−. The class given is cell-based, human. Conditions: Homo sapiens, HCT-116, 96 h, 4 days, IC50 score, read-out: 4 Day Relative Growth Inhibition (MTAP −/−; Example 277). An outline of the steps: (§1)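 Proliferation was read as ATP luminescence (Cell Titer Glo) after a 4-day, 37 °C exposure of HCT116 cells differing only in MTAP deletion status. Dosing was 10 points, 3-fold steps, added 24 h post-plating; signal minus blank, relative to 0.2% DMSO control wells, was plotted against log molar concentration.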
(In general: In ATP-based viability assays light output follows the ATP content of the culture.)

The target of another assay is T1, MAT2A homodimer (Homo sapiens, UniProt P31153).
T1 construct: inferred from Ni sepharose purification and imidazole elution; made in house; host or cells: Sf9 insect cells, recombinant baculovirus (Bac to Bac, pFASTBAC1)
The assay can be described thus: Biochemical assay: inhibition of MAT2A (phosphate release, PiColorLock Gold). To be noted: MAT2A IC50 score; read-out: Enzyme Inhibition (Example 275). Summed up: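 Phosphate formed alongside SAM was read with PiColorLock Gold and quantified against a potassium phosphate standard curve. Reactions ran 60 min at 25 °C after adding a substrate mix of 500 μM ATP and 400 μM L-methionine (mix concentrations). Compound had first been preincubated 60 min with recombinant Sf9-derived MAT2A homodimer ([…]) in pH 8.0 Tris buffer containing MgCl2, KCl, EDTA and BSA.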

Assay [1] deals with SAM in HCT116 human colon carcinoma cell line engineered to delete the MTAP gene (MTAP −/−). The assay can be described thus: Cellular assay of target engagement (SAM) by LC-MS/MS. Format: cell-based. To be noted: Homo sapiens, HCT-116, 72 h, IC50 score, read-out: Cell 72 h SAM Inhibition (MTAP −/−; Example 276). Summed up: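 Intracellular SAM, the MAT2A product, was measured by quantitative LC-MS/MS against a d3-SAM standard in methanol/acetic acid extracts. Extracts came from HCT116 MTAP −/− cells exposed for 72 h at 37 °C to a ten-point, threefold dilution series of compound, added one day after seeding.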

The next assay relates to HCT116 MTAP+/+. The assay can be described thus: Inhibition of cellular proliferation (Cell Titer Glo), HCT116 MTAP+/+. The class given is cell-based, human. Conditions: Homo sapiens, HCT-116, 96 h, 4 days, IC50 score, read-out: 4 Day Relative Growth Inhibition (MTAP +/+; Example 277). An outline of the steps:
as §1

Each structure is given as a SMILES string.

T1 sequence (P31153 whole entry): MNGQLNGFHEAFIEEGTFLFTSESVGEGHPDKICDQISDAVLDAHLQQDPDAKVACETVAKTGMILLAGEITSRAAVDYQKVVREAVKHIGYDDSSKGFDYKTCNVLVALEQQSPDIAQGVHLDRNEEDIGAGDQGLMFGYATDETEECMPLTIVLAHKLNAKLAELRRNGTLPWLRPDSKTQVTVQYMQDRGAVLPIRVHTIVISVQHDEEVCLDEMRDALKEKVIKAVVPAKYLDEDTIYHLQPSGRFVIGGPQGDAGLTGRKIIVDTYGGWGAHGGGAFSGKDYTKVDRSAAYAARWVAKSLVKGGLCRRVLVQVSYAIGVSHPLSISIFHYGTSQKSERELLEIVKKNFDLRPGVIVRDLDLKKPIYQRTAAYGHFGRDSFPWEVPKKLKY

In the case of `COc1ccc(-c2c(=O)n(-c3ccc4c(c3)CCO4)cc3cnc(NCC(F)(F)F)nc23)cc1` [Example 147, 6-(2,3-dihydrobenzofuran-5-yl)-8-(4-methoxyphenyl)-2-((2,2,2-trifluoroethyl)amino)pyrido[4,3-d]pyrimidin-7(6H)-one], the IC50 with HCT116 MTAP−/− is 100 to 10000 nM; on MAT2A homodimer it was less than 100 nM; in assay [1] it was 100 to 1000 nM; with HCT116 MTAP+/+, greater than 10 µM.
Turning to `CCOc1cnc2cn(-c3ccc4nn(C)cc4c3)c(=O)c(-c3ccc(Cl)cc3)c2n1` [Example 147-A], the IC50 in the assay with HCT116 MTAP−/− was less than 100 nM; on MAT2A homodimer, less than 100 nM; in assay [1], less than 100 nM; in the assay with HCT116 MTAP+/+, greater than 10 µM.
For `Cn1cc2cc(-n3cc4cnc(NCC(F)(F)F)nc4c(-c4ccc(OC(F)F)cc4)c3=O)ccc2n1` [Example 148, 8-(4-(difluoromethoxy)phenyl)-6-(2-methyl-2H-indazol-5-yl)-2-((2,2,2-trifluoroethyl)amino)pyrido[4,3-d]pyrimidin-7(6H)-one], the IC50 with HCT116 MTAP−/− is less than 100 nM; on MAT2A homodimer, less than 100 nM; in assay [1], less than 100 nM; in the assay with HCT116 MTAP+/+, 0.1 to 10 µM.
As to `CCOc1cnc2cn(-c3ccc4nn(C)cc4c3)c(=O)c(-c3ccc(OC(F)(F)F)nc3)c2n1` [Example 148-A], the IC50 in the assay on HCT116 MTAP−/− is 100 to 10000 nM; at MAT2A homodimer, less than 100 nM; in assay [1], less than 100 nM; in the assay on HCT116 MTAP+/+, 0.1 to 10 µM.
`CCOc1cnc2cn(-c3ccc4nn(C)cc4c3)c(=O)c(-c3ccc(OC(F)F)nc3)c2n1` [Example 149-A]: the IC50 with HCT116 MTAP−/− was 100 to 10000 nM; on MAT2A homodimer, less than 100 nM; in assay [1] it was less than 100 nM; with HCT116 MTAP+/+ it was 0.1 to 10 µM.
As to `Cc1nc2ccc(-n3cc4cnc(NCC(F)(F)F)nc4c(-c4ccc(OC(F)F)cc4)c3=O)cc2s1` [Example 150, 8-(4-(difluoromethoxy)phenyl)-6-(2-methylbenzo[d]thiazol-6-yl)-2-((2,2,2-trifluoroethyl)amino)pyrido[4,3-d]pyrimidin-7(6H)-one], the IC50 in the assay with HCT116 MTAP−/− is 100 to 10000 nM; on MAT2A homodimer it was less than 100 nM; in assay [1] it was less than 100 nM; in the assay on HCT116 MTAP+/+, 0.1 to 10 µM.
On to `CCOc1cnc2cn(-c3ccc(OC)cc3)c(=O)c(-c3ccc(OC(F)F)cc3)c2n1` [Example 150-A], for which the IC50 in the assay with HCT116 MTAP−/− is 100 to 10000 nM; at MAT2A homodimer it was less than 100 nM; in assay [1], less than 100 nM; with HCT116 MTAP+/+, 0.1 to 10 µM.
Consider `Cn1cnc2ccc(-n3cc4cnc(NCC(F)(F)F)nc4c(-c4ccc(OC(F)F)cc4)c3=O)cc21` [Example 151, 8-(4-(difluoromethoxy)phenyl)-6-(1-methyl-1H-benzo[d]imidazol-6-yl)-2-((2,2,2-trifluoroethyl)amino)pyrido[4,3-d]pyrimidin-7(6H)-one], for which the IC50 in the assay with HCT116 MTAP−/− is less than 100 nM; at MAT2A homodimer it was less than 100 nM; in assay [1], less than 100 nM; in the assay with HCT116 MTAP+/+, 0.1 to 10 µM.
Regarding `CCn1cc2cc(-n3cc4cnc(NCC(F)(F)F)nc4c(-c4ccc(OC(F)F)cc4)c3=O)ccc2n1` [Example 152, 8-(4-(difluoromethoxy)phenyl)-6-(2-ethyl-2H-indazol-5-yl)-2-((2,2,2-trifluoroethyl)amino)pyrido[4,3-d]pyrimidin-7(6H)-one], the IC50 in the assay with HCT116 MTAP−/− was less than 100 nM; at MAT2A homodimer, less than 100 nM; in assay [1], less than 100 nM; with HCT116 MTAP+/+, greater than 10 µM.
As to `CC(C)n1cc2cc(-n3cc4cnc(NCC(F)(F)F)nc4c(-c4ccc(OC(F)F)cc4)c3=O)ccc2n1` [Example 153, 8-(4-(difluoromethoxy)phenyl)-6-(2-isopropyl-2H-indazol-5-yl)-2-((2,2,2-trifluoroethyl)amino)pyrido[4,3-d]pyrimidin-7(6H)-one], the IC50 is less than 100 nM with HCT116 MTAP−/−, less than 100 nM at MAT2A homodimer, less than 100 nM in assay [1] and greater than 10 µM in the assay on HCT116 MTAP+/+.
Turning to `Cn1cc(-n2cc3cnc(NCC(F)(F)F)nc3c(-c3ccc(OC(F)F)cc3)c2=O)ccc1=O` [Example 155, 8-(4-(difluoromethoxy)phenyl)-6-(1-methyl-6-oxo-1,6-dihydropyridin-3-yl)-2-((2,2,2-trifluoroethyl)amino)pyrido[4,3-d]pyrimidin-7(6H)-one], the IC50 is 100 to 10000 nM with HCT116 MTAP−/−, less than 100 nM on MAT2A homodimer, 100 to 1000 nM in assay [1] and 0.1 to 10 µM with HCT116 MTAP+/+.
As to `O=c1c(-c2ccc(OC(F)F)cc2)c2nc(NCC(F)(F)F)ncc2cn1-c1ccc2ncsc2c1` [Example 156, 6-(benzo[d]thiazol-6-yl)-8-(4-(difluoromethoxy)phenyl)-2-((2,2,2-trifluoroethyl)amino)pyrido[4,3-d]pyrimidin-7(6H)-one], the IC50 was less than 100 nM with HCT116 MTAP−/−, less than 100 nM on MAT2A homodimer, less than 100 nM in assay [1] and greater than 10 µM in the assay with HCT116 MTAP+/+.
Turning to `O=c1c(-c2ccc(OC(F)F)cc2)c2nc(NCC(F)(F)F)ncc2cn1-c1ccc2nccn2c1` [Example 157, 8-(4-(difluoromethoxy)phenyl)-6-(imidazo[1,2-a]pyridin-6-yl)-2-((2,2,2-trifluoroethyl)amino)pyrido[4,3-d]pyrimidin-7(6)-one], the IC50 in the assay with HCT116 MTAP−/− is 100 to 10000 nM; on MAT2A homodimer it was less than 100 nM; in assay [1] it was less than 100 nM; in the assay on HCT116 MTAP+/+, greater than 10 µM.
Regarding `Cc1c2cc(-n3cc4cnc(NCC(F)(F)F)nc4c(-c4ccc(OC(F)F)cc4)c3=O)ccc2nn1C` [Example 158, 8-(4-(difluoromethoxy)phenyl)-6-(2,3-dimethyl-2H-indazol-5-yl)-2-((2,2,2-trifluoroethyl)amino)pyrido[4,3-d]pyrimidin-7(6H)-one], the IC50 in the assay on HCT116 MTAP−/− is less than 100 nM; on MAT2A homodimer, less than 100 nM; in assay [1], less than 100 nM; with HCT116 MTAP+/+ it was greater than 10 µM.
With `O=c1c(-c2ccc(OC(F)F)cc2)c2nc(NCC(F)(F)F)ncc2cn1-c1ccc2ncccc2c1` [Example 159, 8-(4-(difluoromethoxy)phenyl)-6-(quinolin-6-yl)-2-((2,2,2-trifluoroethyl)amino)pyrido[4,3-d]pyrimidin-7(6H)-one], the IC50 in the assay with HCT116 MTAP−/− is less than 100 nM; at MAT2A homodimer, less than 100 nM; in assay [1], less than 100 nM; in the assay on HCT116 MTAP+/+, 0.1 to 10 µM.
In the case of `Cn1cc2cc(-n3cc4cnc(NCC(F)(F)F)nc4c(-c4ccc(OC(F)(F)F)cc4)c3=O)ccc2n1` [Example 160, 6-(2-methyl-2H-indazol-5-yl)-2-((2,2,2-trifluoroethyl)amino)-8-(4-(trifluoromethoxy)phenyl)pyrido[4,3-d]pyrimidin-7(6H)-one], the IC50 is less than 100 nM in the assay with HCT116 MTAP−/−, less than 100 nM on MAT2A homodimer, less than 100 nM in assay [1] and greater than 10 µM in the assay on HCT116 MTAP+/+.
As to `Cn1cc2cc(-n3cc4cnc(NCC(F)(F)F)nc4c(-c4ccc(C(F)(F)F)cc4)c3=O)ccc2n1` [Example 161, 6-(2-methyl-2H-indazol-5-yl)-2-((2,2,2-trifluoroethyl)amino)-8-(4-(trifluoromethyl)phenyl)pyrido[4,3-d]pyrimidin-7(6H)-one], the IC50 with HCT116 MTAP−/− is less than 100 nM; at MAT2A homodimer, less than 100 nM; in assay [1], less than 100 nM; in the assay with HCT116 MTAP+/+, greater than 10 µM.
Turning to `O=c1c(-c2ccc(C3CC3)cc2)c2nc(NCC(F)(F)F)ncc2cn1-c1ccc2ncsc2c1` [Example 166, 6-(benzo[d]thiazol-6-yl)-8-(4-cyclopropylphenyl)-2-((2,2,2-trifluoroethyl)amino)pyrido[4,3-d]pyrimidin-7(6)-one], the IC50 in the assay on HCT116 MTAP−/− is less than 100 nM; at MAT2A homodimer it was less than 100 nM; in assay [1], less than 100 nM; in the assay with HCT116 MTAP+/+ it was greater than 10 µM.

Source of the values: patent US11524960B2, “Heterobicyclic inhibitors of MAT2A and methods of use for treating cancer” (AGIOS PHARMACEUTICALS, INC., priority 2018, dated 2022).
